Assay results as given in patent US20250326715A1, “NOVEL MAIN PROTEASE INHIBITORS, AND COMPOSITIONS AND METHODS THEREOF” (University of Massachusetts, priority 2023, published 2025).

Tests used:
M^Pro = M^Pro (Severe acute respiratory syndrome coronavirus 2, UniProt P0DTD1); assay: Chemoproteomic enrichment of proteins labelled by SM144 in A549-hACE2 lysate spiked with M^Pro; format: binding, SARS-CoV-2; details: 1 μM SM144, lysate spiked with 250 nM M^Pro
Experimental: The proteome-wide selectivity was evaluated via an orthogonal chemoproteomic assay. […] Subsequently, the labeled proteins were biotinylated with copper-catalyzed click chemistry in the presence of Biotin-azide, and the biotinylated proteins were selectively enriched on Streptavidin-agarose beads, proteolyzed with trypsin and analyzed by chemoproteomic analysis. […] There were, however, a few cellular off-targets, including glutathione reductase (GSHR), adenosylhomocysteinase (SAHH), aldose reductase (ALDR), S-adenosylmethionine synthase isoform type-2 (METK2), gamma-actin (ACTG), tubulin alpha-4A chain (TBA4A), ubiquitin-like modifier-activating enzyme 1 (UBA1) and junction plakoglobin (PLAK).
A549-hACE2 cell lysate was prepared as described earlier. Endogenous biotinylated proteins were precleared by incubating the lysates with streptavidin-agarose beads (25 μL for 1 mg of total protein in the lysate) at room temperature for 1 h with constant mixing on an end-over-end shaker. The mixture was centrifuged (1200 g, 3 minute) to separate the beads and the supernatant (pre-cleared lysate). […] The assay mixture was incubated at 25° C. for 30 min. Then Biotin-N3 (200 μM), TCEP (1 mM), TBTA (0.3 mM) and freshly prepared CuSO4 (4 mM) were added sequentially, and the tubes were gently tumbled at room temperature for 2 h. […]

in vivo = details: male, C57Bl/6, mouse
Experimental: Pharmacokinetics were evaluated in male C57Bl/6 mice, approximately 25 g. Test compounds were formulated at 0.3 mg/mL for intravenous dosing and 1 mg/mL for oral gavage. Formulation concentrations reflect free-base concentrations. Formulations were prepared by dissolving in DMSO (20× stock) and mixing 1:1 with tween-80. Prior to dosing, the formulation was diluted with sterile saline. The final formulation was 5% DMSO, 5% tween-80, 90% saline (v:v:v). Mice (n=3) were dosed at 10 μL per gram body weight. […] A total of 25 μL blood was collected at each time point. The hematocrit tubes were sealed with a wax plug and held on ice until plasma could be isolated via centrifugation in a microcentrifuge fit with a hematocrit rotor.
Drug levels were determined from 5 μL plasma. Plasma was treated with 75 μL 90/10 acetonitrile/water containing Carbamazepine as an internal standard (IS). Samples were loaded to a 96-well Millipore Multiscreen Solvinter 0.45 micron low binding PTFE hydrophilic filter plate and the filtrate was directly analyzed. All plasma samples were treated with 75 μL 90/10 acetonitrile/water with Carbamazepine as internal standard (IS) to extract the analyte and precipitate protein. The plates were agitated on ice for approximately five minutes prior to centrifugation into a collection plate. Separate standard curves were prepared in blank mouse plasma and brain homogenate and processed in parallel with the samples. The filtrate was directly analyzed by LC-MS/MS.

[1] = Aqueous solubility (comparison in words)
SARS-CoV-2 [2] = assay: Antiviral activity in SARS-CoV-2-infected K18-hACE2 transgenic mice; format: in vivo; details: K18-ACE2 mice; for viral RNA loads and titers in lung tissue vs vehicle control: 72 h treatment; for inflammatory cytokines and chemokines (IFN-β, TNF-α, IL-1β, IL-6) in lung tissue: infected for 72 hours; for protection from SARS-CoV2-induced weight loss and lethality: intranasal 10 mg/kg once daily for 3 days starting 2 h prior to infection; for protection from SARS-CoV-2-induced weight loss and lethality: intraperitoneal 25 mg/kg twice daily for 5 days, post-infection; for histopathological analysis of lung tissue: treatment for 5 days
Excerpt: For these studies, K18-hACE2 transgenic mice (K18-ACE2) were used that express human ACE2 under the control of the epithelial cell cytokeratin-18 (K18) promoter as this model provides robust SARS-CoV-2 infection.
All animal experiments were approved by the Institutional Animal Care Use Committees at the University of Massachusetts Chan Medical School. Animal were kept in a specific pathogen free (SPF) environment. Hemizygous K18-hACE2 C57BL/6J mice (strain: […] (K18-ACE2)2Prlmn/J) were obtained from The Jackson Laboratory. 8-12-week-old male and female mice were anesthetized with isoflurane and infected intranasally with 3×10^4 PFU of SARS-CoV-2. […] Mice were monitored daily for weight loss and survival. Lung samples were collected at indicated time points and placed in a bead homogenizer tube with 1 ml of DMEM+2% FBS for homogenization, then 100 μl of this mixture was placed in PBS for tittering or in 300 μl Trizol LS (Invitrogen) for RNA extraction. For histology, lungs were perfused with 10 U/mL Heparin, intratracheally inflated with 10% buffered-formalin and dissected from mice. Tissues were fixed in 4% paraformaldehyde overnight and embedded in 10% paraffin. Five micrometer thin sections were stained by H&E. Histomorphology, grading of histology scores and evaluation of inflammation of each H&E slide was evaluated by Applied Pathology Systems.

SARS-CoV-2 [3] = format: cell-based; details: Huh7.5 cells, 2 μM, 24 h
A549-hACE2 cells = assay: Cytotoxicity assay (LDH release); format: cell-based, human
Experimental: A549-hACE2 cells were treated with indicated doses of inhibitors for 24 hours. Then the media were collected for lactate dehydrogenase (LDH) assay.
Supernatant samples are transferred to a 96-well plate and an equal volume of CytoTox 96® Reagent is added to each well and incubated for 30 min.

Structure (SMILES): C#CCOCCC(=O)NC(Cc1ccc(F)cc1)C(=O)NC(Cc1ccccc1)C(=O)NC(C=CC(=O)OCC)CC1CCNC1=O (centres unmarked) [SM144]
- proteome-wide selectivity (enriched proteins) (M^Pro): M^Pro is the most statistically significantly enriched protein

Structure (SMILES): CCOC(=O)C=CC(CC1CCNC1=O)NC(=O)C(Cc1ccccc1)NC(=O)C(N)Cc1ccccc1 (centres unmarked) [SM141]
- AUC(0-inf) (in vivo; ip): 827 ng·h/mL
- AUC(0-t) (in vivo; ip): 1.6 µM·h
- Cmax (in vivo; ip): 2.7 µM
- Tmax (in vivo; ip): 8.4 min
- bioavailability (in vivo; ip): 35.2%
- half-life (in vivo; ip): 48 min
- AUC(0-inf) (in vivo; iv): 706 ng·h/mL
- AUC(0-t) (in vivo; iv): 1.3 µM·h
- Cmax (in vivo; iv): 3.9 µM
- MRT inf (in vivo; iv): 24 min
- Tmax (in vivo; iv): 4.8 min
- Vd (in vivo; iv): 1.6 L/kg
- half-life (in vivo; iv): 48 min
- aqueous solubility, in words [1]: more aqueous solubility than SM142
- viral RNA loads and titers in lung tissue vs vehicle control (SARS-CoV-2 [2]): remarkably lower
- inflammatory cytokines and chemokines (IFN-β, TNF-α, IL-1β, IL-6) in lung tissue (SARS-CoV-2 [2]): Reduced inflammatory cytokines and chemokines were detected
- protection from SARS-CoV2-induced weight loss and lethality (SARS-CoV-2 [2]): protects mice from SARS-CoV2-induced weight loss and lethality
- protection from SARS-CoV-2-induced weight loss and lethality (SARS-CoV-2 [2]): protects K18-ACE2 mice from SARS-CoV-2-induced weight loss and lethality
- in vivo antiviral efficacy, SM141 compared with SM142 (SARS-CoV-2 [2]; survival): better antiviral efficacy
- histopathological analysis of lung tissue (SARS-CoV-2 [2]): significant reduction in lung inflammation and improved overall lung pathology
- antiviral activity, in words (SARS-CoV-2 [3]): almost completely blocks viral infection
- concentration up to which no notable cytotoxicity is caused (A549-hACE2 cells; A549-hACE2 cells, 24 h, LDH): > 50 µM
- cytoxcity (A549-hACE2 cells; Table 2): >100 µM

Structure (SMILES): CCOC(=O)C=CC(CC1CCNC1=O)NC(=O)C(Cc1ccccc1)NC(=O)C(Cc1ccc(F)cc1)NC(=O)OC(C)(C)C (centres unmarked) [SM142]
- viral RNA loads and titers in lung tissue vs vehicle control (SARS-CoV-2 [2]): remarkably lower
- inflammatory cytokines and chemokines (IFN-β, TNF-α, IL-1β, IL-6) in lung tissue (SARS-CoV-2 [2]): Reduced inflammatory cytokines and chemokines were detected
- protection from SARS-CoV2-induced weight loss and lethality (SARS-CoV-2 [2]): protects mice from SARS-CoV2-induced weight loss and lethality
- protection from SARS-CoV-2-induced weight loss and lethality (SARS-CoV-2 [2]): protects K18-ACE2 mice from SARS-CoV-2-induced weight loss and lethality
- histopathological analysis of lung tissue (SARS-CoV-2 [2]): significant reduction in lung inflammation and improved overall lung pathology
